Laboratory results: US20230304010A1, “COMPOSITIONS AND METHODS FOR TREATING VIRAL INFECTIONS” (priority 2020, published 2023)
Where “and” joins values, the source holds several entries; their conditions need not be identical. Equal values may be shown once. Read-outs that look alike come from different tables or passages of the source. Ends that are not written are not given here. Peptide text beside a SMILES is read from it.

Legend:
[1] = target: ACE2:SARS-CoV-2 Spike interaction (UniProt P0DTC2+Q9BYF1); assay: biochemical; type: binding
[2] = target: SARS-CoV-2 Spike: ACE2 interaction (UniProt P0DTC2+Q9BYF1); assay: biochemical; type: binding
[3] = read-out: ACE2:SARS-CoV-2 Spike IC50
[4] = read-out: SARS-CoV-2 Spike:ACE2 IC50
[5] = IC50, block of ACE2:SARS-CoV-2 Spike interaction
[6] = IC50, block of SARS-CoV-2 Spike: ACE2 interaction

Sequence of SARS-CoV-2 Spike: ACE2 interaction (Q9BYF1 18-740, one chain of several): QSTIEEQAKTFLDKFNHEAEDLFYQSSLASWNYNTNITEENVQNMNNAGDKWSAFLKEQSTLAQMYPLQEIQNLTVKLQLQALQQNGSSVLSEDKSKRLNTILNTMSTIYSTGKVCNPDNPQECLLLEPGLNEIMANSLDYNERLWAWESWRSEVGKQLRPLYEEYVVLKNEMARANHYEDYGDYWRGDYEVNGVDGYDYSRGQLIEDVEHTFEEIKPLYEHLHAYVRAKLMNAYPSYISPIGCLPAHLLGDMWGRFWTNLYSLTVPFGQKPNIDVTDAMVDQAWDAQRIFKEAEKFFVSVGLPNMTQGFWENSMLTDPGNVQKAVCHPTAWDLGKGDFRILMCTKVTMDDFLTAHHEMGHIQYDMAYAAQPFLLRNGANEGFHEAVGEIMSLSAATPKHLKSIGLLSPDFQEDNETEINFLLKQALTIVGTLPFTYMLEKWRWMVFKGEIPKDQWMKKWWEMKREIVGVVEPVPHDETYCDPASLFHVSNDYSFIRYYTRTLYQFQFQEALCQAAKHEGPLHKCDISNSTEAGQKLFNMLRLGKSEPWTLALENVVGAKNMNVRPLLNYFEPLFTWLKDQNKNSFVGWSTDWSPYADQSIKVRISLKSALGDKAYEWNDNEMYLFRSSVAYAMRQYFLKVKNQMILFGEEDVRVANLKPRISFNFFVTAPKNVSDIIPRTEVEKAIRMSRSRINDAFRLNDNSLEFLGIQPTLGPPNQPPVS
Sequence of ACE2:SARS-CoV-2 Spike interaction (Q9BYF1 18-740, one chain of several): as above

Molecule | IC50 ([1]; ACE2:SARS-CoV-2 Spike IC50) [µM] | IC50 ([2]; SARS-CoV-2 Spike:ACE2 IC50) [µM] | IC50 [1, 3] [µM] | IC50 [2, 4] [µM] | IC50 [1, 5] | IC50 [2, 6] [µM]
TNGVGYQPY [Seq11] | > 1 | > 1 | – | – | – | –
CC[C@H](C)[C@H](NC(=O)[C@H](CCCNC(=N)N)NC(=O)[C@H](Cc1ccccc1)NC(=O)[C@H](CC(=O)O)NC(=O)CNC(=O)[C@H](CCCCN)NC(=O)CNC(=O)[C@H](CC(C)C)NC(=O)[C@H](CC(=O)O)NC(=O)[C@H](Cc1c[nH]c2ccccc12)NC(=O)[C@H](C)NC(=O)[C@@H](NC(C)=O)[C@@H](C)O)C(=O)NCCCCCC(=O)N[C@@H](CC(C)C)C(=O)N[C@@H](Cc1c[nH]c2ccccc12)C(=O)N[C@@H](CCCNC(=N)N)C(=O)N[C@@H](C)C(=O)N[C@@H](CC(C)C)C(=O)N[C@@H](Cc1c[nH]c2ccccc12)C(=O)N[C@@H](CCCNC(=N)N)C(=O)N[C@@H](CC(C)C)C(=O)N[C@@H](Cc1c[nH]c2ccccc12)C(=O)N[C@@H](CCCNC(=N)N)C(=O)N[C@@H](CO)C(=O)N[C@@H](CC(C)C)C(=O)N[C@@H](Cc1c[nH]c2ccccc12)C(=O)N[C@@H](CCCNC(=N)N)C(=O)N[C@@H](CC(C)C)C(=O)N[C@@H](CC(C)C)C(=O)N[C@@H](Cc1c[nH]c2ccccc12)C(=O)N[C@@H](CCCCN)C(N)=O [Seq36] | > 1 | > 1 | – | – | – | –
CC(C)C[C@H](NC(=O)[C@H](CCCNC(=N)N)NC(=O)[C@H](Cc1ccc(O)cc1)NC(=O)[C@H](CC(C)C)NC(=O)[C@H](Cc1ccc(O)cc1)NC(=O)[C@H](CC(N)=O)NC(=O)[C@H](Cc1ccc(O)cc1)NC(=O)[C@H](CC(N)=O)NC(=O)CNC(=O)CN)C(=O)N[C@@H](Cc1ccccc1)C(=O)N[C@@H](CCCNC(=N)N)C(=O)N[C@@H](CCCCN)C(=O)O [Seq4] | > 10 | > 10 | – | – | – | –
Ac-G*NYNYLYRL*-Ava-LWRALWRLWRSLWRLLWK-NH2 [Seq14] | – | – | > 10 | > 10 | – | –
GFQPTNGVK [Seq10] | > 10 | > 10 | – | – | – | –
VEGFNCYFP [Seq7] | > 10 | > 10 | – | – | – | –
Ac-EQAKTFLDKFNHEAEDLF [Seq24] | 0.57 ± 0.03 | 1.3 | – | – | – | –
Ac-NMTQGFWENPGGPTAWDLGK [Seq31] | > 10 | > 10 | – | – | > 10 µM and 25 µM | > 10
SYGFQPTNGV [Seq9] | > 10 | > 10 | – | – | – | –
Ac-KTFLDKFNHEAEDLFYS [Seq26] | 2.1 | 1.9 | – | – | – | –
CC(C)[C@H](NC(=O)CNC(=O)[C@H](CC(N)=O)NC(=O)[C@@H](N)CS)C(=O)N[C@@H](CCC(=O)O)C(=O)NCC(=O)N[C@@H](Cc1ccccc1)C(=O)N[C@@H](CC(N)=O)C(=O)N[C@@H](CS)C(=O)O [Seq6] (H-CNGVEGFNC-OH) | > 10 | > 10 | – | – | – | –
Ac-K*VGGNYNYK*-Ava-LWRALWRLWRSLWRLLWK-NH2 [Seq13] | – | – | > 10 | > 10 | – | –
Ac-KTFLDKFNHEAEDLF [Seq25] | 1.9 | 2.5 | – | – | – | –
KVGGNYNYL [Seq2] | > 10 | > 10 | – | – | – | –
Ac-V*EGENCYF*Ava-LWRALWRLWRSLWRLLWK-NH2 [Seq18] | – | – | > 10 | > 10 | – | –
Ac-NMTQGFWENSMLTD [Seq30] | > 10 | > 10 | – | – | > 10 µM | > 10
GNYNYLYRL [Seq3] | > 10 | > 10 | – | – | – | –
STEYQAGST [Seq5] | > 10 | > 10 | – | – | – | –
CC(C)C[C@H](NC(=O)[C@@H]1CCCN1C(=O)[C@H](Cc1ccccc1)NC(=O)[C@@H](N)Cc1ccc(O)cc1)C(=O)N[C@@H](CCC(N)=O)C(=O)N[C@@H](CO)C(=O)N[C@@H](Cc1ccc(O)cc1)C(=O)NCC(=O)N[C@@H](Cc1ccccc1)C(=O)N[C@@H](CCC(N)=O)C(=O)N1CCC[C@H]1C(=O)N[C@H](C(=O)N[C@@H](CC(N)=O)C(=O)NCC(=O)N[C@H](C(=O)NCC(=O)N[C@@H](Cc1ccc(O)cc1)C(=O)N[C@@H](CCC(N)=O)C(=O)O)C(C)C)[C@@H](C)O [Seq8] | > 10 | > 10 | – | – | – | –
